Source: article PMC4815915 (Bioorganic & medicinal chemistry letters, 2015)

Key:
[1] = system: Plasmodium falciparum 3D7 strain; assay: In vitro antiplasmodial activity against chloroquine-susceptible 3D7 strain; format: cell-based
[2] = system: rat microglia TXB2 generation; conditions: read-out: TXB2 generation apparent IC50; cited from earlier work

**Q.** Which IC50 ([1]; Plasmodium falciparum, 3D7, read-out: 3D7 IC50 ± SE) does the source give for CCN(CC)CCCC(C)Nc1ccnc2cc(Cl)ccc12 (stereo not drawn) [CQ, chloroquine] here?
**A.** 6.6 ± 0.0008 nM

**Q.** Which “Fold more active than the standard drug CQ (3D7)” value ([1]; antiplasmodial IC50 compared with chloroquine) does the source give for [C-]#[N+]C(C)(C)C[C@@H]1C[C@H](C)[C@H]2CC[C@H](C)[C@@]3([N+]#[C-])CCC(=C)[C@@H]1[C@H]23 [Compound 3, 8,15-diisocyano-11(20)-amphilectene] here?
**A.** 5.5 times

**Q.** For CC(C(=O)O)c1ccc(-c2ccccc2)c(F)c1 (stereo not drawn) [flurbiprofen], which IC50 [2] is on record?
**A.** 100 nM
